Assay results from patent US4921871A, “Enolamides, pharmaceutical compositions and methods of use thereof for treating inflammation” (Warner-Lambert Company, priority 1987, dated 1990).

Biological target: T1, leukotriene receptor (Cavia porcellus, UniProt Q2NNR5)
T1 construct: Two pairs of lungs (1.3 g) from freshly sacrificed 300 g male guinea pigs; tissue Kuiper Rabbit Farm, Gary, Ind; (animals); host or cells: guinea pig lung, crude membranes
T1 sequence (Q2NNR5 1-340): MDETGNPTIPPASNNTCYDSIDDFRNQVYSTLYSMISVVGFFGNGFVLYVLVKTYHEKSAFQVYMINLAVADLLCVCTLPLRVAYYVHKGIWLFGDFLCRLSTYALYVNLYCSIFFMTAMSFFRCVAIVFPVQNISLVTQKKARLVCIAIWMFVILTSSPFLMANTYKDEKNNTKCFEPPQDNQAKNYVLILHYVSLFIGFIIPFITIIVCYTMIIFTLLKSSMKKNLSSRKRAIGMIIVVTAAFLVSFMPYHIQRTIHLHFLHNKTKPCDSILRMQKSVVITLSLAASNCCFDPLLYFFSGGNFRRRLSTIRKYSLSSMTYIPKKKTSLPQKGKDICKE
Experiment: Binding of 3H-Leukotriene D4 to Guinea Pig Lung Membranes (RBL)
Settings: 1.00 E -4 M
Procedure: Additionally, the activity, of the compounds having the Formula I of the present invention is determined by the well known leukotriene receptor binding assay that is described by R. F. Bruns, W. J. Thomsen and T. A. Pugsley in Life Sciences, 33, 645 (1983) or the Herxheimer in vivo antiallergy test described in H. Herxheimer, J. Physiol. (London), Vol. 177, p. 251 (1952).
[14,15-^3 H]leukotriene D4 (^3 H-LTD4) (25 Ci/mmol and 40 Ci/mmol) is purchased from New England Nuclear. Unlabeled LTC4 is a gift of Ono Pharmaceuticals (Japan). LTC4, LTD4, and LTE4 are purchased as methyl esters from Paesel GmbH (Frankfurt, W. Germany). Concentrations of the Paesel leukotrienes are calculated from their absorbance at 280 nm. Leukotriene esters are saponified overnight under N2 in 3.3% potassium carbonate at room temperature. Tritiated leukotrienes are stored as received from New England Nuclear at -20° C. Ono LTC4 (5 μg/ml) is stored at -60° C. in phosphate buffer pH - 6.8. Saponified Paesel leukotrienes are stored at -60° C. in 3.3% potassium carbonate (pH 9.0-9.5). Aliquots of leukotrienes are taken from stock solutions immediately after thawing, after which the stock solutions are immediately refrozen. 2-Amino-2-(hydroxymethyl)-1,3-propanediol (Tris) is Sigma pH 7.7 pre-set crystals, and dimethylsulfoxide is Aldrich Gold Label. Preparation of crude lung membranes
Two pairs of lungs (1.3 g) from freshly sacrificed 300 g male guinea pigs (older animals gave substantially lower binding) from Kuiper Rabbit Farm, Gary, Ind. are disrupted with a Polytron PT 10 (setting 4) for 30 seconds in 20 ml ice-cold 50 mM Tris adjusted with HCl to pH 7.7 at 25° C. (Tris buffer), filtered through a single layer of gauze to remove connective tissue, and centrifuged at 50,000 xg for ten min. The pellet is resuspended by homogenization with a Polytron in 20 ml Tris buffer, centrifuged at 50,000 xg for ten min., resuspended, incubated at 37° C. for 30 minutes, and centrifuged again. The final pellet is resuspended in Tris buffer and either used fresh or stored at -70° C.
All incubations are in triplicate for 60 minutes at 25° C. in 12×75 mm polystyrene tubes containing 1 ml Tris buffer with 20 mg original tissue wet weight of guinea pig lung membranes, 0.2 nM ^3 H-LTD4 (6,000-11,000 cpm), 10 mM MgCl2, and 1% dimethylsulfoxide. Leukotrienes are diluted in Tris buffer. All other test compounds dissolved at 10 mM in dimethylsulfoxide on the same day as the experiment, and diluted in dimethylsulfoxide to 100× the final incubation concentration. Control incubations receive an equal volume (10 μl) of dimethylsulfoxide; the resulting concentration of dimethylsulfoxide had no effect on binding. ^3 H-LTD4 is diluted to 2 nM in Tris buffer. The membrane suspension (20 mg/0.89 ml) contains sufficient MgCl2 to give 10 mM final concentration in the incubation. […] All additions are performed at 0° C. Immediately after the last addition, the incubation is initiated by agitating the rack of tubes on a vortex mixer and warming to 25° C. in a water bath. Tubes are vortexed at least once more during the incubation to ensure that the membranes remained suspended. Incubations are terminated after 60 minutes by filtering under reduced pressure through 25 mm Whatman GF/B filters followed by rapid washing three times with 4 ml of ice-cold Tris buffer. Filters are added to scintillation vials with 8 ml Formula 947 (New England Nuclear), left overnight, shaken, and the radioactivity counted in a scintillation counter (efficiency 40%). Nonspecific binding, defined as binding of ^3 H-LTD4 in the presence of 100 nM LTC4, is 300-500 cpm for all lots of ^3 H-LTD4. Binding to the filters in the absence of tissue is about 100 cpm, and is not affected by unlabeled LTC4. Specific binding, defined as total binding minus nonspecific binding, varied considerably from lot to lot of ^3 H-LTD4. […]

SMILES | RBL, % Inhibition [%]
O=C(Nc1ccc(CCc2ccc(Cl)c(Cl)c2)cc1)C(=O)c1sc2ccccc2c1O [Example 136, Benzo[b]thiophene-2-acetamide, N-[4-[2-(3,4-dichlorophenyl)ethyl]phenyl]-3-hydroxy-α-oxo] | 11.0
COc1c(C(=O)Nc2ccc(CCc3ccc(Cl)c(Cl)c3)cc2)sc2ccccc12 [Example 147, Benzo[b]thiophene-2-carboxamide, N-[4-[2-(3,4-dichlorophenyl)ethyl]phenyl]-3-methoxy] | 3.0
